Assay results from ChEMBL document CHEMBL5352452, “Design, synthesis and pharmacological evaluation of β-carboline derivatives as potential antitumor agent via targeting autophagy” (Eur J Med Chem, 2023).
Active and inactive are the calls of the source. No cut-off for these calls is given here.

Tests used:
HCT-116 [1] = assay: Downregulation of Myc-v1 in human HCT-116 cells at 2 uM incubated for 24 hrs by RNA sequencing analysis; type: functional, cell-based
HCT-116 [2] = assay: Downregulation of mTORC1 signaling pathway in human HCT-116 cells at 2 uM incubated for 24 hrs by RNA sequencing analysis; type: functional, cell-based
HCT-116 [3] = assay: Induction of autophagy in human HCT-116 cells assessed as increase in p62 expression at 3 uM measured upto 36 hrs by Western blot analysis; type: functional, cell-based
HCT-116 [4] = assay: Induction of apoptosis in human HCT-116 cells assessed as increase in LC3-II expression upto 4 uM incubated for 24 hrs by Western blot analysis; type: functional, cell-based
HCT-116 [5] = assay: Antiproliferative activity against ATG7 knockout human HCT-116 cells assessed as inhibition of cell growth measured after 24 hrs by CCK-8 assay; type: functional, cell-based; details: HCT-116, 24 h
HCT-116 [6] = assay: Induction of apoptosis in human HCT-116 cells assessed as increase in cleaved caspase 3 expression upto 5 uM incubated for 24 hrs by Western blot analysis; type: functional, cell-based
HCT-116 [7] = assay: Antiproliferative activity against human HCT-116 cells expressing ATG5-FLAG assessed as inhibition of cell growth measured after 24 hrs by CCK-8 assay; type: functional, cell-based; details: HCT-116, 24 h
HCT-116 [8] = assay: Induction of morphological changes in human HCT-116 cells assessed as appearance of round cells at 2 to 6 uM measured after 24 hrs by microscopic analysis; type: functional, cell-based; details: dose 2-6 µM
HCT-116 [9] = assay: Induction of apoptosis in ATG7 knockout human HCT-116 cells assessed as increase in caspase 3 expression upto 4 uM incubated for 24 hrs by Western blot analysis; type: functional, cell-based
HCT-116 [10] = assay: Inhibition of colony formation in ATG5 knockout human HCT-116 cells upto 4 uM […] by crystal violet staining based analysis; type: functional, cell-based
HCT-116 [11] = assay: Antiproliferative activity against ATG5 knockout human HCT-116 cells assessed as inhibition of cell growth measured after 24 hrs by CCK-8 assay; type: functional, cell-based; details: HCT-116, 24 h
HCT-116 [12] = assay: Induction of autophagy in human HCT-116 cells assessed as increase in p62 expression upto 5 uM incubated for 24 hrs by Western blot analysis; type: functional, cell-based
HCT-116 [13] = assay: Induction of apoptosis in p53 knockout human HCT-116 cells assessed as increase in cleaved caspase 3 expression upto 5 uM incubated for 24 hrs by Western blot analysis; type: functional, cell-based
HCT-116 [14] = assay: Inhibition of colony formation in ATG7 knockout human HCT-116 cells upto 4 uM […] by crystal violet staining based analysis; type: functional, cell-based
HCT-116 [15] = assay: Upregulation of bile acid metabolism pathway in human HCT-116 cells at 2 uM incubated for 24 hrs by RNA sequencing analysis; type: functional, cell-based
HCT-116 [16] = assay: Induction of autophagy in human HCT-116 cells assessed as increase in LC3-II expression upto 5 uM incubated for 24 hrs by Western blot analysis; type: functional, cell-based
CT26 [17] = assay: Antitumor activity against […] CT26 cells xenografted in C57BL/6 mouse assessed as reduction in tumor weight at 45 mg/kg, ip administered once every two days measured after 16 days; type: functional; design: scale not given: the % may be the effect or the level left; details: time 16 day
[18] = Antiproliferative activity against human BIU-87 cells assessed as inhibition of cell growth measured after 48 hrs by MTT assay; type: functional, cell-based; details: BIU87, 48 h
HCT-116 [19] = assay: Induction of apoptosis in human HCT-116 cells assessed as late apoptotic cells at 1 uM incubated for 24 hrs in presence of Z-VAD-FMK by annexin V FITC/propidium iodide staining based flow cytometry (reference value: 4.6 %); type: functional
HCT-116 [20] = assay: Induction of apoptosis in p53 knockout human HCT-116 cells assessed as increase in caspase 3 expression upto 5 uM incubated for 24 hrs by Western blot analysis; type: functional, cell-based
786-0 = assay: Antiproliferative activity against human 786-0 cells assessed as inhibition of cell growth measured after 48 hrs by MTT assay; type: functional, cell-based; details: 786-0, 48 h
HCT-116 [21] = assay: Upregulation of Kras signaling pathway in human HCT-116 cells at 2 uM incubated for 24 hrs by RNA sequencing analysis; type: functional, cell-based
HCT-116 [22] = assay: Upregulation of inflammatory response gene in human HCT-116 cells at 2 uM incubated for 24 hrs by RNA sequencing analysis; type: functional, cell-based
KB = assay: Antiproliferative activity against human KB cells assessed as inhibition of cell growth measured after 48 hrs by MTT assay; type: functional, cell-based
HCT-116 [23] = assay: Induction of apoptosis in human HCT-116 cells assessed as early apoptotic cells at 1 uM incubated for 24 hrs by annexin V FITC/propidium iodide staining based flow cytometry (reference value: 4.7%); type: functional
HCT-116 [24] = assay: Induction of morphological changes in human HCT-116 cells assessed as reduction in intercellular contact at 2 to 6 uM measured after 24 hrs by microscopic analysis; type: functional, cell-based; details: dose 2-6 µM
HCT-116 [25] = assay: Induction of apoptosis in human HCT-116 cells assessed as viable cells at 1 uM incubated for 24 hrs by annexin V FITC/propidium iodide staining based flow cytometry (reference value: 83 %); type: functional; details: read-out: Activity
HCT-116 [26] = assay: Downregulation of Myc-v2 in human HCT-116 cells at 2 uM incubated for 24 hrs by RNA sequencing analysis; type: functional, cell-based
SK-OV-3 = assay: Antiproliferative activity against human SK-OV-3 cells assessed as inhibition of cell growth measured after 48 hrs by MTT assay; type: functional, cell-based; details: SK-OV-3, 48 h
HCT-116 [27] = assay: Induction of apoptosis in human HCT-116 cells assessed as viable cells at 2 uM incubated for 24 hrs in presence of Z-VAD-FMK by annexin V FITC/propidium iodide staining based flow cytometry (reference value: 86.2 %); type: functional; details: read-out: Activity
HCT-116 [28] = assay: Induction of autophagy in human HCT-116 cells assessed as increase in LC3-II expression at 3 uM measured upto 36 hrs by Western blot analysis; type: functional, cell-based
HCT-116 [29] = assay: Inhibition of colony formation in human HCT-116 cells at 1 to 4 uM measured after 14 days by crystal violet staining based analysis; type: functional, cell-based; details: dose 1-4 µM, time 14.0 day
HCT-116 [30] = assay: Induction of autophagy in human HCT-116 cells expressing ATG7-FLAG assessed as increase in LC3-II expression upto 4 uM measured after 24 hrs by Western blot analysis; type: functional, cell-based
HCT-116 [31] = assay: Induction of apoptosis in human HCT-116 cells assessed as necrotic cells at 1 uM incubated for 24 hrs in presence of Z-VAD-FMK by annexin V FITC/propidium iodide staining based flow cytometry (reference value: 2.9 %); type: functional
CT26 [32] = assay: Antitumor activity against […] CT26 cells xenografted in C57BL/6 mouse assessed as reduction in tumor volume at 45 mg/kg, ip administered once every two days measured after 8 days; type: functional, organism-based; details: time 8.0 day
HCT-116 [33] = assay: Induction of morphological changes in human HCT-116 cells assessed as appearance of wrinkled cells at 2 to 6 uM measured after 24 hrs by microscopic analysis; type: functional, cell-based; details: dose 2-6 µM
HCT-116 [34] = assay: Induction of autophagy in human HCT-116 cells expressing ATG5-FLAG assessed as increase in LC3-II expression upto 4 uM measured after 24 hrs by Western blot analysis; type: functional, cell-based
BGC-823 = assay: Antiproliferative activity against human BGC-823 cells assessed as inhibition of cell growth measured after 48 hrs by MTT assay; type: functional, cell-based; details: BGC-823, 48 h

Question: For `CN1CCN(Cc2cc3c4ccccc4n(CCCc4ccccc4)c3c(CN3CCN(C)CC3)n2)CC1`, which Activity (HCT-116 [1]) is on record?
Answer: Its Activity is “Active”.

Question: What about the Activity (HCT-116 [2]) of the same molecule?
Answer: Its Activity is “Active”.

Question: What about the Activity (HCT-116 [3]) of the same molecule?
Answer: Its Activity is “Active”.

Question: And the Activity (HCT-116 [4])?
Answer: The Activity was “Active”.

Question: What about the IC50 (HCT-116 [5]) of the same molecule?
Answer: Its IC50 is 7.89 µM.

Question: And the Activity (HCT-116 [6])?
Answer: The Activity was “inactive”.

Question: And the IC50 (HCT-116 [7])?
Answer: Its IC50 is 4.57 µM.

Question: What about the Activity (HCT-116 [8]) of the same molecule?
Answer: Its Activity is “Active”.

Question: And the Activity (HCT-116 [9])?
Answer: The Activity was “inactive”.

Question: What about the inhibition (HCT-116 [10]) of the same molecule?
Answer: The inhibition was “inactive”.

Question: And the IC50 (HCT-116 [11])?
Answer: The IC50 was 7.36 µM.

Question: What about the Activity (HCT-116 [12]) of the same molecule?
Answer: Its Activity is “Active”.

Question: And the Activity (HCT-116 [13])?
Answer: Its Activity is “inactive”.

Question: What about the inhibition (HCT-116 [14]) of the same molecule?
Answer: The inhibition was “inactive”.

Question: And the Activity (HCT-116 [15])?
Answer: Its Activity is “Active”.

Question: What about the Activity (HCT-116 [16]) of the same molecule?
Answer: The Activity was “Active”.

Question: And the Activity (CT26 [17])?
Answer: Its Activity is 69.69%.

Question: What about the IC50 [18] of the same molecule?
Answer: Its IC50 is 4.53 µM.

Question: And the Activity (HCT-116 [19])?
Answer: The Activity was 4.9%.

Question: And the Activity (HCT-116 [20])?
Answer: Its Activity is “inactive”.

Question: And the IC50 (786-0)?
Answer: The IC50 was 2.71 µM.

Question: And the Activity (HCT-116 [21])?
Answer: The Activity was “Active”.

Question: And the Activity (HCT-116 [22])?
Answer: Its Activity is “Active”.

Question: What about the IC50 (KB) of the same molecule?
Answer: Its IC50 is 8.12 µM.

Question: And the Activity (HCT-116 [23])?
Answer: The Activity was 5.1%.

Question: What about the Activity (HCT-116 [24]) of the same molecule?
Answer: The Activity was “Active”.

Question: And the viability at 1 µM (HCT-116 [25])?
Answer: Its viability at 1 µM is 83.3%.

Question: What about the Activity (HCT-116 [26]) of the same molecule?
Answer: The Activity was “Active”.

Question: And the IC50 (SK-OV-3)?
Answer: The IC50 was 10.6 µM.

Question: What about the viability at 2 µM (HCT-116 [27]) of the same molecule?
Answer: The viability at 2 µM was 83.7%.

Question: And the Activity (HCT-116 [28])?
Answer: Its Activity is “Active”.

Question: What about the inhibition (HCT-116 [29]) of the same molecule?
Answer: Its inhibition is “Active”.

Question: And the Activity (HCT-116 [30])?
Answer: The Activity was “Active”.

Question: What about the Activity (HCT-116 [31]) of the same molecule?
Answer: The Activity was 3.6%.

Question: And the Activity (CT26 [32])?
Answer: The Activity was “Active”.

Question: What about the Activity (HCT-116 [33]) of the same molecule?
Answer: Its Activity is “Active”.

Question: And the Activity (HCT-116 [34])?
Answer: The Activity was “Active”.

Question: What about the IC50 (BGC-823) of the same molecule?
Answer: Its IC50 is 24.8 µM.
